In series [1] the target is T1, US28 receptor (Human cytomegalovirus, UniProt P69332).
T1 construct: expressed in transfected cells; host or cells: HEK 293T cells, transiently transfected
The settings on record: same Elk1 reporter assay, from ref 13; cited from earlier work. On the technique in general: In a reporter assay the amount or activity of a reporter protein is the signal.

Series [2] relates to HIV-1 BaL. Briefly: Anti-HIV assay (luciferase, HIV-1 BaL infection). The class given is cell-based. Particulars: 10 μM, Experiment 1B, 2 ng/mL p24 HIV-1 BaL; for inhibition at 10 µM: Human immunodeficiency virus 1, BAL. Put shortly: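 Cells infected with HIV-1 BaL at 2 ng/mL p24 (MOI approx 0.02) in compound presence. Infection read out by luciferase.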
Series [3] concerns the target T1, US28 receptor. The series can be described thus: PathDetect trans Elk1 luciferase reporter gene assay in US28-transfected 293T HEK cells. Format: cell-based, Human Cytomegalovirus (HCMV). The settings on record: 293T HEK cells transiently expressing US28, Elk1 reporter; NE = no effect when tested at 10 μM of compound. Put shortly:
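HEK293T cells transiently transfected with Elk1, Luc and US28 vector (empty pcDNA3 for mock) were dosed with compounds in DMEM/1% FBS with 1% DMSO for 20-24 h at 37° C. Bright-Glo luminescence decrease was read; EC50 is halfway between maximal response and no-compound control, by non-linear regression.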

A short description of series [4]: TZMbI assay for cell safety (cell viability and growth, CytoTox Glo). The settings on record: human, TZMbI cells, 10 μM, Experiment 1A; read-out: % decrease in viability compared to 0.1% DMSO vehicle based on viable cell luminescence. The procedure:
Assays were performed below in accordance with the procedures set forth in The Journal of Immunology, 2006, 176, pp. 6900-905; AIDS Research and Human Retroviruses, 2004, 20:11, pp. 1157-1665.^32,33 TZMbI assays for cell safety were performed to identify potential anti-viral compounds. TZMbI assays for cell safety were performed to identify potential anti-viral compounds per the methods.

Series [5] relates to CHO cells. The series can be described thus: CHO cell toxicity, MTS assay, 48 h. The class given is cell-based, Chinese hamster. The settings on record: Cricetulus griseus, CHO, 37° C., MTS reagent, read-out: CHO 48 h IC50 value. Put shortly:
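CHO cells plated at 10,000 cells/mL, incubated overnight, then exposed to drug (final DMSO <1%) for 48 h at 37 °C, 5% CO2, in triplicate. MTS added for a further 4 h; absorbance read at 490 nm. IC50 taken from relative A490 versus drug concentration.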
Background: Tetrazolium assays rely on reduction of a dye to a coloured formazan, in cell work by metabolically active cells.

In series [6] the test system is mock transfected 293T HEK cells. The series can be described thus: PathDetect Elk1 luminescence in mock transfected (empty pcDNA3 vector) 293T HEK cells, off-target effect. The class given is cell-based, human. Particulars: Homo sapiens, 10 μM vs 1% DMSO control, Equation 1; read-out: Effect(%) on mock cells with each drug at 10 μM. An outline of the steps:
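HEK 293T cells were transiently transfected with PathDetect Elk1/luciferase and empty pcDNA3, then exposed to 10 μM compound in medium with 1% FBS and 1% DMSO for 20-24 h at 37 °C. BrightGlo luminescence was compared with the 1% DMSO control: % effect = 100%×(mock/DMSO) − 100%.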

The EC50 is the concentration at which the effect is half-maximal. As a reminder, the melting point is the temperature, or range, at which the solid turns liquid. A word on the inhibition: it is the relative decrease from the control value, in per cent. By IC50 is commonly meant the concentration that gives 50% inhibition.

Molecules are shown by their SMILES. Where two headings read alike, the source gives them in different places. A value given as a limit tells only on which side of the number the result lay.

T1 sequence (P69332 whole entry): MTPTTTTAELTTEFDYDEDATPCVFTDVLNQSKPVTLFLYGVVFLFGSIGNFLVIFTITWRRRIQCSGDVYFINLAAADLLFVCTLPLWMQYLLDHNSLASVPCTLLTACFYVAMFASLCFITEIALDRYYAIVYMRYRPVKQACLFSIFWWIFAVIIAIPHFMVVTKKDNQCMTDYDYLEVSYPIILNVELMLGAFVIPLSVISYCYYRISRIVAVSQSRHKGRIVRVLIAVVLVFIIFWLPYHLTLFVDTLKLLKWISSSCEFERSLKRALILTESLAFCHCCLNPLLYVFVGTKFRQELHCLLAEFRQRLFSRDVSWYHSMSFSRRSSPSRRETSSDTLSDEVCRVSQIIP

For the compound `N#CC(CCCN1CCC(O)(c2ccc(Cl)cc2)CC1)(c1ccccc1)c1ccccc1` [Compound 5a, VUF2274], in series [1], the 50% effective concentration (EC50) was 4.5 µM and the efficacy is around 22%.
On to `COc1cc(OC)c(-c2oc3ccccc3c(=O)c2O)cc1Br` [Compound 9e, 2-(5-Bromo-2,4-dimethoxyphenyl)-3-hydroxy-4H-chromen-4-one], for which the melting point is 196 to 201 °C. Also, in series [2], the “RLU (relative luciferase units)” value was found to be 693.9 RLU and testing at 10 µM gave an inhibition of 25.9%. The same compound gave an EC50 in series [3] above 10 µM. Further, the cytotoxicity at 10 μM in series [4] is -11.9%. In addition, the IC50 in series [5] was found to be 18.3 ± 2.5 µM. In addition, the activation at 10 µM in series [6] was -17%.
In turn, `COc1ccc(Br)cc1-c1oc2cccc(OC)c2c(=O)c1O` [Compound 9f, 2-(5-Bromo-2-methoxyphenyl)-3-hydroxy-5-methoxy-4H-chromen-4-one] returned a melting point of 207 to 213 °C. For the same compound, in series [2], the “RLU (relative luciferase units)” value was determined as 528.5 RLU and the inhibition at 10 µM was found to be 43.6%. The half-maximal effective concentration (EC50) in series [3] is above 10 µM. Besides, in series [4], the cytotoxicity at 10 μM was -0.2%. For the same compound, in series [5], the IC50 came to 17.3 ± 1.9 µM. Moreover, the activation at 10 µM in series [6] is -1%.
